Structures can show the parent of a compound that is named as a salt.
Assay: Genotoxicity studies of bupivacaine HCl (4 in vitro, 2 in vivo)
Conditions: 4 in vitro studies and 2 in vivo studies
From the text: The distribution, metabolism, and excretion of bupivacaine across species is characterized in the literature including data showing that, following absorption, bupivacaine is rapidly and readily distributed to tissues, with the highest concentrations in highly perfused tissues. In general, the metabolic profile of bupivacaine is similar across species although quantitatively different, with no novel metabolite identified in humans (Goehl, et al., 1973, Carson 2000). The excretion of bupivacaine in monkeys and humans is predominantly in the urine; in rats, excretion in urine and feces is generally similar; and in dogs, only small amounts of excretion of bupivacaine in the urine have been reported.

With `CCCCN1CCCCC1C(=O)Nc1c(C)cccc1C` (stereo not shown) [bupivacaine HCl] the Genotoxicity was “no safety concerns identified”.
